Laboratory results taken from patent publication US12582638B2, “Pharmaceutical composition for treating cancer, containing mTOR-signaling inhibitor as active ingredient” (KOREA ADVANCED INSTITUTE OF SCIENCE AND TECHNOLOGY, priority 2020, dated 2026).

Legend:
Assay in all cases: Cell viability, CellTiterGlo, 72 hours
Assay type in all cases: cell-based
NCI-H1048 = settings: Homo sapiens, NCI-H1048 cells, Lung
Protocol: (§1) In addition to the colorectal cells, 120 cancer cell lines treated with various concentrations of lomitapide were assayed for viability. To analyze cell viability, the cells were incubated with lomitapide at 37° C. for 72 hours in a 5% or 10% CO2 atmosphere and then equilibrated at room temperature for 1 hour, followed by addition of CellTiterGlo reagent (Promega). One hour later, luminescence was measured to calculate cell viability (%). The 120 cell lines were purchased from ATCC (American Type Culture Collection, Virginia, USA).

NCI-H1437 = settings: Homo sapiens, NCI-H1437 cells, Lung
Protocol: as §1

MV4-11 = settings: Homo sapiens, MV4-11 cells, Blood
Protocol: as §1

EFM-19 = settings: Homo sapiens, EFM-19 cells, Breast
Protocol: as §1

BT-20 = settings: Homo sapiens, BT-20 cells, Breast
Protocol: as §1

H460 = settings: Homo sapiens, NCI-H460, H460 cells, Lung
Protocol: as §1

EFM-192A = EFM-192A cells, Breast
Protocol: as §1

A172 = settings: Homo sapiens, A 172, A172 cells, Brain
Protocol: as §1

JIMT-1 = settings: Homo sapiens, JIMT-1 cells, Breast
Protocol: as §1

NCI-H292 = settings: Homo sapiens, NCI-H292 cells, Lung
Protocol: as §1

NCI-H82 = settings: Homo sapiens, NCI-H82 cells, Lung
Protocol: as §1

Caki-1 = settings: Homo sapiens, Caki-1 cells, Kidney
Protocol: as §1

Ishikawa = settings: Homo sapiens, Ishikawa cells, Endometrium
Protocol: as §1

SW620 = settings: Homo sapiens, SW-620, SW620 cells, Colon
Protocol: as §1

AsPC-1 = settings: Homo sapiens, ASPC1, AsPC-1 cells, Pancreas
Protocol: as §1

U251MG = settings: Homo sapiens, U-251, U251MG cells, Brain
Protocol: as §1

JVM-3 = settings: Homo sapiens, JVM-3 cells, Blood
Protocol: as §1

PANC-1 = settings: Homo sapiens, PANC-1 cells, Pancreas
Protocol: as §1

M07e = settings: M-07e, M07e cells, Blood
Protocol: as §1

U-937 = settings: Homo sapiens, U-937 cells, Blood
Protocol: as §1

SW480 = settings: Homo sapiens, SW480 cells, Colon
Protocol: as §1

PC3 = settings: Homo sapiens, PC-3, PC3 cells, Prostate
Protocol: as §1

HCC827 = settings: Homo sapiens, HCC827 cells, Lung
Protocol: as §1

DLD-1 = settings: Homo sapiens, DLD-1 cells, Colon
Protocol: as §1

Kato III = settings: Homo sapiens, Kato III cells, Stomach
Protocol: as §1

LP-1 = settings: Homo sapiens, LP-1 cells, Blood
Protocol: as §1

H1299 = settings: Homo sapiens, NCI-H1299, H1299 cells, Lung
Protocol: as §1

P31/FUJ = settings: Homo sapiens, P31/FUJ cells, Blood
Protocol: as §1

Mia PaCA 2 = settings: Homo sapiens, Mia PaCA 2 cells, Pancreas
Protocol: as §1

U87MG = settings: Homo sapiens, U-87 MG, U87MG cells, Brain
Protocol: as §1

SNU-216 = SNU-216 cells, Stomach
Protocol: as §1

Caki-2 = settings: Homo sapiens, Caki-2 cells, Kidney
Protocol: as §1

SK-ES-1 = settings: Homo sapiens, SK-ES1, SK-ES-1 cells, Bone
Protocol: as §1

U118MG = settings: Homo sapiens, U-118-MG, U118MG cells, Brain
Protocol: as §1

A2780 = settings: Homo sapiens, A2780 cells, Ovary
Protocol: as §1

KARPAS 299 = settings: Homo sapiens, KARPAS 299 cells, Blood
Protocol: as §1

NCI-H1703 = settings: Homo sapiens, NCI-H1703 cells, Lung
Protocol: as §1

LOU-NH91 = LOU-NH91 cells, Lung
Protocol: as §1

DU-145 = settings: Homo sapiens, DU-145 cells, Prostate
Protocol: as §1

SK.BR-3 = settings: Homo sapiens, SK.BR-3 cells, Breast
Protocol: as §1

Compound: O=C(NC1CCN(CCCCC2(C(=O)NCC(F)(F)F)c3ccccc3-c3ccccc32)CC1)c1ccccc1-c1ccc(C(F)(F)F)cc1 [lomitapide, N-(2,2,2-trifluoroethyl)-9-[4-[4-[[[4′-(trifluoromethyl)[1,1′-biphenyl]2-yl]carbonyl]amino]-1-piperidinyl]butyl]-9H-fluoren-9-carboxamide]
- IC50 (NCI-H1048): 5.5 µM
- IC50 (NCI-H1437): 3.1 µM
- IC50 (MV4-11): 6.2 µM
- IC50 (EFM-19): 3.6 µM
- IC50 (BT-20): 5 µM
- IC50 (H460): 3.8 µM
- IC50 (EFM-192A): 4 µM
- IC50 (A172): 1.9 µM
- IC50 (JIMT-1): 3.3 µM
- IC50 (NCI-H292): 3 µM
- IC50 (NCI-H82): 3.2 µM
- IC50 (Caki-1): 3.6 µM
- IC50 (Ishikawa): 3.6 µM
- IC50 (SW620): 3.6 µM
- IC50 (AsPC-1): 3.6 µM
- IC50 (U251MG): 5.4 µM
- IC50 (JVM-3): 4 µM
- IC50 (PANC-1): 4.5 µM
- IC50 (M07e): 4.2 µM
- IC50 (U-937): 2.3 µM
- IC50 (SW480): 2.5 µM
- IC50 (PC3): 4.3 µM
- IC50 (HCC827): 4.1 µM
- IC50 (DLD-1): 4.5 µM
- IC50 (Kato III): 5.4 µM
- IC50 (LP-1): 5.4 µM
- IC50 (H1299): 4.8 µM
- IC50 (P31/FUJ): 3.1 µM
- IC50 (Mia PaCA 2): 2.9 µM
- IC50 (U87MG): 3.1 µM
- IC50 (SNU-216): 3.1 µM
- IC50 (Caki-2): 2.8 µM
- IC50 (SK-ES-1): 3.5 µM
- IC50 (U118MG): 2.5 µM
- IC50 (A2780): 2.7 µM
- IC50 (KARPAS 299): 1.4 µM
- IC50 (NCI-H1703): 5.7 µM
- IC50 (LOU-NH91): 5.7 µM
- IC50 (DU-145): 5 µM
- IC50 (SK.BR-3): 3.9 µM
